Source: PubChem BioAssay AID624029 (Broad Institute, 2012)
Calls of active or inactive are those of the source.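 The calls were made as follows: active = compounds lowering HDL uptake fluorescence with a fitted half-maximal potency at most twice the top tested dose; inconclusive = flat partial inhibition of 30 to 70% or an unreliable fit; inactive = the rest.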

Target: Scavenger receptor class B member 1 (Mus musculus) (UniProt Q61009)
Experiment: blockers of DiI-HDL lipid transfer via SR-BI – cell-based, ldlA[mSR-BI] CHO, DiI fluorescence, dry powder, set 10, dose response (AID 624029)
Conditions: CHO ldlA[mSR-BI] DiI-HDL uptake fluorescence, 3 h; for activity change, negative = inhibition: at 35 µM (top of the series)

Sequence of Scavenger receptor class B member 1 (Mus musculus) (Q61009 whole entry, looked up): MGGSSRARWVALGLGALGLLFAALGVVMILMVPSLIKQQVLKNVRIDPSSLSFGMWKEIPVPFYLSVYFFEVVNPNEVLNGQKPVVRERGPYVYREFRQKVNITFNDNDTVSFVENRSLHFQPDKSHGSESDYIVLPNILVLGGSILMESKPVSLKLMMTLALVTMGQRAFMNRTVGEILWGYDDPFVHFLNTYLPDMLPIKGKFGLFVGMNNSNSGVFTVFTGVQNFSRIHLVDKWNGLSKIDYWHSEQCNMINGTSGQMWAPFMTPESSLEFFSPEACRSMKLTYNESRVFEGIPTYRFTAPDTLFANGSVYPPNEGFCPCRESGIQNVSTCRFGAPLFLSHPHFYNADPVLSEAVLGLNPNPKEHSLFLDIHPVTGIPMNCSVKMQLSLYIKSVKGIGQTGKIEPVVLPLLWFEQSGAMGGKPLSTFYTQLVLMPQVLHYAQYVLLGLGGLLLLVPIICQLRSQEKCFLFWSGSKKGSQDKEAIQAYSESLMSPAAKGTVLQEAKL

SMILES	activity change, negative = inhibition	AC50
CNC[C@@H]1Oc2ccc(NC(=O)NC(C)C)cc2C(=O)N([C@H](C)CO[Si](C)(C)C(C)(C)C)C[C@H]1C	inactive	
CC(C)NC(=O)Nc1cccc2c1O[C@@H](CN(C)S(=O)(=O)c1ccc(Cl)cc1)[C@H](C)CN([C@H](C)CO)C2=O	inactive	
C=CCOC(=O)N(C)C[C@@H]1Oc2ccc(NC(=O)OCC3c4ccccc4-c4ccccc43)cc2C(=O)N([C@H](C)CO)C[C@H]1C	inactive	
CC(C)NC(=O)Nc1ccc2c(c1)CC(=O)N([C@H](C)CO)C[C@@H](C)[C@H](CN(C)S(=O)(=O)c1ccc(Cl)cc1)O2	inactive	
CC(C)NC(=O)Nc1ccc2c(c1)C(=O)N([C@H](C)CO[Si](C)(C)C(C)(C)C)C[C@@H](C)[C@H](CN(C)S(=O)(=O)c1ccc(Cl)cc1)O2	inactive	
C=CCOC(=O)N(C)C[C@@H]1Oc2ccc(NC(=O)NC(C)C)cc2C(=O)N([C@H](C)CO[Si](C)(C)C(C)(C)C)C[C@H]1C	inactive	
CC(C)NC(=O)Nc1ccc2c(c1)C(=O)N([C@H](C)CO)C[C@@H](C)[C@H](CN(C)S(=O)(=O)c1ccc(Cl)cc1)O2		293 nM
C[C@@H]1CN([C@H](C)CO)C(=O)c2cc(NC(=O)Nc3ccc(F)cc3)ccc2O[C@H]1CN(C)S(=O)(=O)c1ccc(Cl)cc1	inactive	
